Test results from article PMC9481597 (Communications Biology, 2022).
Like-named read-outs stand apart in the source and are kept apart here.

Tests used:
[1] = system: MPro^WT (SARS-CoV-2 main protease, mature dimer); conditions: ITC, cited from earlier work; for Kd: read-out: Kd = Ki
MPro^1-199(C145A) [2] = target: T1, MPro^1-199(C145A) (Severe acute respiratory syndrome coronavirus 2, UniProt P0DTC1, C3408A); format: binding, SARS-CoV-2
MPro^C145A = MPro^C145A (Severe acute respiratory syndrome coronavirus 2, UniProt P0DTC1, C3408A); format: binding, SARS-CoV-2
MPro^1-199(C145A) [3] = target: T1, MPro^1-199(C145A); parameters: species or system SARS-CoV-2
[4] = system: MPro^WT (SARS-CoV-2 main protease, mature dimer); format: binding

## CC(C)(C)[C@H](NC(=O)C(F)(F)F)C(=O)N1C[C@H]2[C@@H]([C@H]1C(=O)N[C@H](C#N)C[C@@H]1CCNC1=O)C2(C)C [NMV, nirmatrelvir]
[1]; NMV
  N: 0.99 ± 0.003
  ΔG: –11.2 kcal/mol
  ΔH: –10.75 ± 0.7 kcal/mol
  ΔS: 1.57 cal/mol/K
  Kd: 7 ± 3 nM
MPro^1-199(C145A) [2]
  protein-inhibitor adduct in mass spectra: absence of the imidate thioester adduct
MPro^C145A
  N: 0.96 ± 0.04
  ΔH: –3.89 ± 0.2 kcal/mol
  ΔS: 12.6 cal/mol/K
MPro^1-199(C145A) [3]
  Kdimer.app: >200 µM
  dimer formation in SV-AUC: no faster sedimenting species other than a monomer was observed
[4]
  increase in binding affinity by nitrile warhead reacting with C145: ~ 400 times

## CC(C)C[C@H](NC(=O)OCc1ccccc1)C(=O)N[C@H](C=O)C[C@@H]1CCNC1=O [GC373]
[1]; GC373
  N: 0.99 ± 0.01
  ΔG: -9.4 kcal/mol
  ΔH: -6.7 ± 0.1 kcal/mol
  ΔS: 9.1 cal/mol/K
  Kd: 150 ± 30 nM
MPro^C145A
  Kd = Ki: no response
